Results published in publication PMC9403976, “Elucidating the path to Plasmodium prolyl-tRNA synthetase inhibitors that overcome halofuginone resistance” (Nature Communications, 2022).
“And” between values parts separate entries of the source, which are not always exact repeats. Equal entries are not always repeated. Where two headings read alike, the source gives them in different places.

Columns and labels:
P. falciparum Dd2-2D4 = experiment: P. falciparum asexual blood stage (ABS) growth assay, SYBR Green, 72 h, wild-type parasites; format: cell-based, Plasmodium falciparum; conditions: Plasmodium falciparum, DD2; SI Fig 16b; values on -log scale; read-out: ABS - Dd2-2D4 (converted)
PfcProRS = target: T1, PfcProRS (Plasmodium falciparum, UniProt Q8I5R7); format: binding; conditions: single replicates
T1 construct: made in house; host or cells: E. coli SoluBL-21
T1 sequence (Q8I5R7 249-746): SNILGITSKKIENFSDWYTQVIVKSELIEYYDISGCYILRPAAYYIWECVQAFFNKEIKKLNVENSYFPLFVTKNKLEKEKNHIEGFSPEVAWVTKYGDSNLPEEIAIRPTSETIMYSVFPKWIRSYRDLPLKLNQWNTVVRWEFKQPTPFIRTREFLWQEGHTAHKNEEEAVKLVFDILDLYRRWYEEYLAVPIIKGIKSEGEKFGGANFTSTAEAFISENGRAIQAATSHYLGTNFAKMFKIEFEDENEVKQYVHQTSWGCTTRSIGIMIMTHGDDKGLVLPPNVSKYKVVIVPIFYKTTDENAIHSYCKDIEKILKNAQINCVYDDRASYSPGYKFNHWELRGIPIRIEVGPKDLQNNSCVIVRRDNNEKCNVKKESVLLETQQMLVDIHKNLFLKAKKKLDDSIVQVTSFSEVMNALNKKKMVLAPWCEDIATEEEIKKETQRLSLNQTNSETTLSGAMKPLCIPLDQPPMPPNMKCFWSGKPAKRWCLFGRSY

HsProRS = HsProRS (Homo sapiens, UniProt P07814); experiment: TR-FRET ligand displacement assay with tracer MAT379 (CoraFluor-1-Halo and anti-His6 antibody formats); format: binding; set-up: made in house; host or cells: E. coli SoluBL-21; conditions: for TR-FRET dose-response, normalized signal (SI Fig 11): individual replicates
Sequence of HsProRS (P07814 996-1512): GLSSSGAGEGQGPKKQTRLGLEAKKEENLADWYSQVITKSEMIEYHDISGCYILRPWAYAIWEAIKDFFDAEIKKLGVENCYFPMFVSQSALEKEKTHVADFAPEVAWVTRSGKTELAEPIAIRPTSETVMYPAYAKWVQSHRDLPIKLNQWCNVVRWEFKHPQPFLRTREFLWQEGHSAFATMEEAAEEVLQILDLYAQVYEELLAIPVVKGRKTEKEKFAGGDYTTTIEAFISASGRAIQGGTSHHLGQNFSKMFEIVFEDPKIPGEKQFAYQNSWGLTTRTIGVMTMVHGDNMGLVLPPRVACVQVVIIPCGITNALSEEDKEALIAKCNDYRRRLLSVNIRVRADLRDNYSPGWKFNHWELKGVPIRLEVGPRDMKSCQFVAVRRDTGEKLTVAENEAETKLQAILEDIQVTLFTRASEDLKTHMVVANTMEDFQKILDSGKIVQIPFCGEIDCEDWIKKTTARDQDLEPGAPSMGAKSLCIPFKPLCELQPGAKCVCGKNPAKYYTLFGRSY

**Q.** `CC(C)(C)OC(=O)NC1(C(=O)Nc2nccnc2C(=O)NC2Cc3ccccc3C2)CCCCC1` [compound 16] was tested. Which EC50 (P. falciparum Dd2-2D4) did it give?
**A.** 6.11 µM

**Q.** And the “dose-response signal (normalized), SI Fig 8” value (PfcProRS; Log[inhibitor] (M) -5.000)?
**A.** 6.20E-01 and 5.27E-01 and 6.63E-01

**Q.** What about the “dose-response signal (normalized), SI Fig 8” value (PfcProRS; Log[inhibitor] (M) -5.301) of the same compound?
**A.** 7.82E-01 and 8.01E-01 and 7.78E-01

**Q.** And the “dose-response signal (normalized), SI Fig 8” value (PfcProRS; Log[inhibitor] (M) -5.601)?
**A.** 9.11E-01 and 9.60E-01 and 1.00E+00

**Q.** And the “dose-response signal (normalized), SI Fig 8” value (PfcProRS; Log[inhibitor] (M) -5.904)?
**A.** 1.10E+00 and 9.14E-01 and 1.01E+00

**Q.** And the “dose-response signal (normalized), SI Fig 8” value (PfcProRS; Log[inhibitor] (M) -6.208)?
**A.** 9.01E-01 and 9.36E-01 and 9.23E-01

**Q.** And the “dose-response signal (normalized), SI Fig 8” value (PfcProRS; Log[inhibitor] (M) -6.509)?
**A.** 1.06E+00 and 9.75E-01 and 1.11E+00

**Q.** What about the “dose-response signal (normalized), SI Fig 8” value (PfcProRS; Log[inhibitor] (M) -6.796) of the same compound?
**A.** 9.95E-01 (2×) and 1.12E+00

**Q.** And the “dose-response signal (normalized), SI Fig 8” value (PfcProRS; Log[inhibitor] (M) -7.108)?
**A.** 9.41E-01 and 8.82E-01 and 1.04E+00

**Q.** What about the “dose-response signal (normalized), SI Fig 8” value (PfcProRS; Log[inhibitor] (M) -7.409) of the same compound?
**A.** 1.04E+00 and 1.02E+00 and 9.01E-01

**Q.** And the “dose-response signal (normalized), SI Fig 8” value (PfcProRS; Log[inhibitor] (M) -7.710)?
**A.** 9.65E-01 and 9.90E-01 and 1.00E+00

**Q.** What about the “dose-response signal (normalized), SI Fig 8” value (PfcProRS; Log[inhibitor] (M) -8.000) of the same compound?
**A.** 9.92E-01 and 8.87E-01 and 9.29E-01

**Q.** What about the “dose-response signal (normalized), SI Fig 8” value (PfcProRS; Log[inhibitor] (M) -8.301) of the same compound?
**A.** 9.41E-01 and 9.84E-01 and 9.99E-01

**Q.** What about the “dose-response signal (normalized), SI Fig 8” value (PfcProRS; Log[inhibitor] (M) -8.602) of the same compound?
**A.** 9.39E-01 and 9.44E-01 and 1.00E+00

**Q.** What about the “dose-response signal (normalized), SI Fig 8” value (PfcProRS; Log[inhibitor] (M) -9.000) of the same compound?
**A.** 9.16E-01 and 9.94E-01 and 9.86E-01

**Q.** What about the “dose-response signal (normalized), SI Fig 8” value (PfcProRS; Log[inhibitor] (M) -9.301) of the same compound?
**A.** 9.11E-01 and 9.01E-01 and 9.58E-01

**Q.** And the IC50 (HsProRS)?
**A.** > 10 µM

**Q.** What about the “HsProRS % signal at 10 μM, + 100 μM proline” value (HsProRS; + 100 μM proline, 10 μM) of the same compound?
**A.** 70.7%

**Q.** What about the “normalized TR-FRET ligand displacement signal, dose-response replicates (SI Fig 6)” value (HsProRS; Log[inhibitor] (M) -5.000) of the same compound?
**A.** 4.34E-01 and 4.81E-01 and 6.11E-01

**Q.** And the “TR-FRET dose-response, normalized signal (SI Fig 11)” value (HsProRS; Log[inhibitor] (M) -5.000)?
**A.** 8.52E-01 and 8.40E-01 and 8.43E-01

**Q.** What about the “normalized TR-FRET ligand displacement signal, dose-response replicates (SI Fig 6)” value (HsProRS; Log[inhibitor] (M) -5.301) of the same compound?
**A.** 6.93E-01 and 7.38E-01 and 8.04E-01

**Q.** What about the “TR-FRET dose-response, normalized signal (SI Fig 11)” value (HsProRS; Log[inhibitor] (M) -5.301) of the same compound?
**A.** 9.27E-01 and 9.08E-01 and 9.74E-01

**Q.** What about the “normalized TR-FRET ligand displacement signal, dose-response replicates (SI Fig 6)” value (HsProRS; Log[inhibitor] (M) -5.601) of the same compound?
**A.** 9.79E-01 and 9.61E-01 and 8.02E-01

**Q.** And the “TR-FRET dose-response, normalized signal (SI Fig 11)” value (HsProRS; Log[inhibitor] (M) -5.601)?
**A.** 9.47E-01 and 9.15E-01 and 9.10E-01

**Q.** And the “normalized TR-FRET ligand displacement signal, dose-response replicates (SI Fig 6)” value (HsProRS; Log[inhibitor] (M) -5.904)?
**A.** 1.00E+00 and 9.00E-01 and 9.53E-01

**Q.** And the “TR-FRET dose-response, normalized signal (SI Fig 11)” value (HsProRS; Log[inhibitor] (M) -5.904)?
**A.** 9.81E-01 and 1.01E+00 and 9.64E-01

**Q.** And the “normalized TR-FRET ligand displacement signal, dose-response replicates (SI Fig 6)” value (HsProRS; Log[inhibitor] (M) -6.208)?
**A.** 1.01E+00 and 9.68E-01 and 8.67E-01

**Q.** And the “TR-FRET dose-response, normalized signal (SI Fig 11)” value (HsProRS; Log[inhibitor] (M) -6.208)?
**A.** 9.74E-01 and 9.73E-01 and 9.58E-01

**Q.** What about the “normalized TR-FRET ligand displacement signal, dose-response replicates (SI Fig 6)” value (HsProRS; Log[inhibitor] (M) -6.509) of the same compound?
**A.** 8.93E-01 and 9.31E-01 and 9.89E-01

**Q.** And the “TR-FRET dose-response, normalized signal (SI Fig 11)” value (HsProRS; Log[inhibitor] (M) -6.509)?
**A.** 9.98E-01 and 9.53E-01 and 9.97E-01

**Q.** What about the “normalized TR-FRET ligand displacement signal, dose-response replicates (SI Fig 6)” value (HsProRS; Log[inhibitor] (M) -6.796) of the same compound?
**A.** 9.58E-01 and 1.05E+00 and 1.01E+00

**Q.** What about the “TR-FRET dose-response, normalized signal (SI Fig 11)” value (HsProRS; Log[inhibitor] (M) -6.796) of the same compound?
**A.** 9.61E-01 and 9.66E-01 and 9.67E-01

**Q.** And the “normalized TR-FRET ligand displacement signal, dose-response replicates (SI Fig 6)” value (HsProRS; Log[inhibitor] (M) -7.108)?
**A.** 9.61E-01 and 9.43E-01 and 9.87E-01

**Q.** What about the “TR-FRET dose-response, normalized signal (SI Fig 11)” value (HsProRS; Log[inhibitor] (M) -7.108) of the same compound?
**A.** 9.51E-01 and 9.57E-01 and 9.59E-01

**Q.** And the “normalized TR-FRET ligand displacement signal, dose-response replicates (SI Fig 6)” value (HsProRS; Log[inhibitor] (M) -7.409)?
**A.** 1.08E+00 and 1.02E+00 (2×)

**Q.** What about the “TR-FRET dose-response, normalized signal (SI Fig 11)” value (HsProRS; Log[inhibitor] (M) -7.409) of the same compound?
**A.** 9.88E-01 and 8.98E-01 and 1.00E+00

**Q.** What about the “normalized TR-FRET ligand displacement signal, dose-response replicates (SI Fig 6)” value (HsProRS; Log[inhibitor] (M) -7.710) of the same compound?
**A.** 9.30E-01 and 9.73E-01 and 8.91E-01

**Q.** What about the “TR-FRET dose-response, normalized signal (SI Fig 11)” value (HsProRS; Log[inhibitor] (M) -7.710) of the same compound?
**A.** 9.77E-01 and 9.48E-01 and 9.54E-01

**Q.** What about the “normalized TR-FRET ligand displacement signal, dose-response replicates (SI Fig 6)” value (HsProRS; Log[inhibitor] (M) -8.000) of the same compound?
**A.** 9.09E-01 and 9.96E-01 and 8.17E-01

**Q.** What about the “TR-FRET dose-response, normalized signal (SI Fig 11)” value (HsProRS; Log[inhibitor] (M) -8.000) of the same compound?
**A.** 9.83E-01 and 9.29E-01 and 9.65E-01

**Q.** And the “normalized TR-FRET ligand displacement signal, dose-response replicates (SI Fig 6)” value (HsProRS; Log[inhibitor] (M) -8.301)?
**A.** 9.56E-01 and 8.69E-01 and 9.45E-01

**Q.** What about the “TR-FRET dose-response, normalized signal (SI Fig 11)” value (HsProRS; Log[inhibitor] (M) -8.301) of the same compound?
**A.** 1.00E+00 and 1.01E+00 and 9.30E-01

**Q.** What about the “normalized TR-FRET ligand displacement signal, dose-response replicates (SI Fig 6)” value (HsProRS; Log[inhibitor] (M) -8.602) of the same compound?
**A.** 9.44E-01 and 9.32E-01 and 1.00E+00

**Q.** What about the “TR-FRET dose-response, normalized signal (SI Fig 11)” value (HsProRS; Log[inhibitor] (M) -8.602) of the same compound?
**A.** 9.93E-01 and 9.41E-01 and 1.01E+00

**Q.** And the “normalized TR-FRET ligand displacement signal, dose-response replicates (SI Fig 6)” value (HsProRS; Log[inhibitor] (M) -9.000)?
**A.** 8.94E-01 and 8.85E-01 and 9.67E-01

**Q.** And the “TR-FRET dose-response, normalized signal (SI Fig 11)” value (HsProRS; Log[inhibitor] (M) -9.000)?
**A.** 9.74E-01 and 9.63E-01 and 9.89E-01

**Q.** What about the “normalized TR-FRET ligand displacement signal, dose-response replicates (SI Fig 6)” value (HsProRS; Log[inhibitor] (M) -9.301) of the same compound?
**A.** 1.12E+00 and 1.00E+00 and 9.62E-01

**Q.** What about the “TR-FRET dose-response, normalized signal (SI Fig 11)” value (HsProRS; Log[inhibitor] (M) -9.301) of the same compound?
**A.** 9.82E-01 and 9.33E-01 and 9.53E-01

**Q.** And the “HsProRS % signal at 10 μM” value (HsProRS; no added proline/ATP (-), 10 μM)?
**A.** 84.5%

**Q.** And the IC50 (HsProRS; read-out: HsProRS IC50 + 100 μM proline, + 100 μM proline)?
**A.** > 10 µM
